Molecular target: T1, human MC5R (hMC5R) (Homo sapiens, UniProt P33032)
T1 construct: purchased Perkin Elmer RBXMC5M400UA
Test: Human MC5R radioligand binding assay (membranes, [125I] NDP-MSH displacement)
Conditions: hMC5R binding; tested as trifluoroacetate or hydrochloride salts, or free bases; read-out: MC5R radioligand IC50
Experimental: Assessments of compound binding to human MC5R (hMC5R) ) by displacement of an ^125I-labeled NDP-MSH receptor ligand peptide were performed essentially as described in the data sheets produced by Perkin Elmer to accompany their frozen hMC5R membranes (Perkin Elmer catalog number RBXMC5M400UA).
[^125I] NDP-MSH: radiolabeled in house and purified by HPLC:
• Na^125I (0.5 mCi, 17.4 Ci/mg) was added to 50 μL sodium phosphate (50 mM, pH7.4) in an eppendorf tube precoated with IODOGEN. After incubation for 10 mins the phosphate buffer containing the iodine was added to NDP-MSH (10 ul at 1 mg/mL) in a separate eppendorf tube. This was incubated for a further 10 mins. The iodinated NDP-MSH was purified by HPLC on a Zorbax SB 300 column using solvent A: 0.05% TFA and solvent B: 90% acetonitrile 0.045% TFA with a linear gradient, 0-67% B over 60 mins. […] Resuspended membranes were kept on ice until they were added to the wells of the plate. Binding Protocol for 400 microassays per vial: • Assays were performed in 96 well polypropylene plates. […] This was incubated for 1 hr at 37° C.

T1 sequence (P33032 whole entry): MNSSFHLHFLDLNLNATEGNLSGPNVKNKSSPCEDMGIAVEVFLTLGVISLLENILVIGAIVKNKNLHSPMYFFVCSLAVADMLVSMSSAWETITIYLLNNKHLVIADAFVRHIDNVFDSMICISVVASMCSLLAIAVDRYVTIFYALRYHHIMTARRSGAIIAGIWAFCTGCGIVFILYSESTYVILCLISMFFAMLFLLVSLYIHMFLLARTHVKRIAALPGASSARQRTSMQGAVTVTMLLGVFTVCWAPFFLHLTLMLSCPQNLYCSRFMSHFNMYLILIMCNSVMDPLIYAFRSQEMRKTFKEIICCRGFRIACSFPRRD

IC50 [µM]	SMILES
< 1	CC(C)c1ccc(/C=C/C(=O)NC[C@@H]2CCN(CC(c3ccccc3)c3ccccc3)C(=O)[C@H](CCN)N2)cc1 [Compound 397, (E)-N-(((3S,5S)-3-(2-aminoethyl)-1-(2,2-diphenylethyl)-2-oxo-1,4-diazepan-5-yl)methyl)-3-(4-isopropylphenyl)acrylamide]
< 0.1	CC[C@H](CN1CC[C@@H](CNC(=O)c2ccc3cc(Cl)ccc3c2)N[C@@H](CCCN2CCCCC2)C1=O)c1ccccc1 [Compound 417, 6-chloro-N-(((3S,5S)-2-oxo-1-((S)-2-phenylbutyl)-3-(3-(piperidin-1-yl)propyl)-1,4-diazepan-5-yl)methyl)-2-naphthamide]
< 0.1	O=C(NC[C@@H]1CCN(Cc2cc(Cl)cc(Cl)c2)C(=O)[C@H](CCN2CCCCC2)N1)c1ccc2ccccc2c1 [Compound 327, N-(((3S,5S)-1-(3,5-dichlorobenzyl)-2-oxo-3-(2-(piperidin-1-yl)ethyl)-1,4-diazepan-5-yl)methyl)-2-naphthamide]
< 1	CCCCC(CC)C(=O)NC[C@@H]1CCN(CC(c2ccccc2)c2ccccc2)C(=O)[C@H](CCCNC(=N)N)N1 (stereo partly drawn) [Compound 224, N-(((3S,5S)-1-(2,2-diphenylethyl)-3-(3-guanidinopropyl)-2-oxo-1,4-diazepan-5-yl)methyl)-2-ethylhexanamide]
< 0.1	O=C(NC[C@@H]1CCN(CC(c2ccccc2)c2ccccc2)C(=O)[C@H](CCCN2CCCCC2)N1)c1ccc2cc(F)ccc2c1 [Compound 359, N-(((3S,5S)-1-(2,2-diphenylethyl)-2-oxo-3-(3-(piperidin-1-yl)propyl)-1,4-diazepan-5-yl)methyl)-6-fluoro-2-naphthamide]
< 1	CC[C@H](CN1CC[C@@H](CNC(=O)c2ccc(Cl)c(Cl)c2)N[C@@H](CCN(C)c2ccccc2)C1=O)c1ccccc1 [Compound 425, 3,4-dichloro-N-(((3S,5S)-3-(2-(methyl(phenyl)amino)ethyl)-2-oxo-1-((S)-2-phenylbutyl)-1,4-diazepan-5-yl)methyl)benzamide]
< 0.1	CC[C@@H](CN1CC[C@@H](CNC(=O)c2ccc(Cl)c(Cl)c2)N[C@@H](CCN2CCCCC2)C1=O)C(C)C [Compound 461, 3,4-dichloro-N-(((3S,5S)-1-((R)-2-ethyl-3-methylbutyl)-2-oxo-3-(2-(piperidin-1-yl)ethyl)-1,4-diazepan-5-yl)methyl)benzamide]
< 1	CC[C@H](CN1CC[C@@H](CNC(=O)c2ccc3cc(Cl)ccc3c2)N[C@@H](CC(C)(C)N)C1=O)c1ccccc1 [Compound 463, N-(((3S,5S)-3-(2-amino-2-methylpropyl)-2-oxo-1-((S)-2-phenylbutyl)-1,4-diazepan-5-yl)methyl)-6-chloro-2-naphthamide]
< 0.01	CC[C@H](CN1CC[C@@H](CNC(=O)c2ccc3cc(Cl)ccc3c2)N[C@@H](CCNC(C)C)C1=O)c1ccccc1 [Compound 440, 6-chloro-N-(((3S,5S)-3-(2-(isopropylamino)ethyl)-2-oxo-1-((S)-2-phenylbutyl)-1,4-diazepan-5-yl)methyl)-2-naphthamide]
< 0.1	CC[C@H](CN1CC[C@@H](CNC(=O)c2ccc(Cl)c(Cl)c2)N[C@@H](CCN2CCNCC2)C1=O)c1ccccc1 [Compound 443, 3,4-dichloro-N-(((3S,5S)-2-oxo-1-((S)-2-phenylbutyl)-3-(2-(piperazin-1-yl)ethyl)-1,4-diazepan-5-yl)methyl)benzamide]
< 0.1	CCC[C@H](CN1CC[C@@H](CNC(=O)c2ccc3ccccc3c2)N[C@@H](CCN2CCCCC2)C1=O)c1ccccc1 [Compound 433, N-(((3S,5S)-2-oxo-1-((S)-2-phenylpentyl)-3-(2-(piperidin-1-yl)ethyl)-1,4-diazepan-5-yl)methyl)-2-naphthamide]
< 0.1	CC[C@H](CN1CC[C@@H](CNC(=O)c2ccc3cc(Cl)ccc3c2)N[C@@H](CCN2CCOCC2)C1=O)c1ccccc1 [Compound 515, 6-chloro-N-(((3S,5S)-3-(2-morpholinoethyl)-2-oxo-1-((S)-2-phenylbutyl)-1,4-diazepan-5-yl)methyl)-2-naphthamide]
< 0.1	CC[C@H](CN1CC[C@@H](CNC(=O)c2ccc(Cl)c(Cl)c2)N[C@@H](CCNC(C)C)C1=O)c1ccccc1 [Compound 465, 3,4-dichloro-N-(((3S,5S)-3-(2-(isopropylamino)ethyl)-2-oxo-1-((S)-2-phenylbutyl)-1,4-diazepan-5-yl)methyl)benzamide]
< 1	CC[C@@H](CN1CC[C@@H](CNC(=O)c2ccc3cc(Cl)ccc3c2)N[C@@H](CCN)C1=O)C(C)C [Compound 469, N-(((3S,5S)-3-(2-aminoethyl)-1-((R)-2-ethyl-3-methylbutyl)-2-oxo-1,4-diazepan-5-yl)methyl)-6-chloro-2-naphthamide]
< 1	CC[C@H](CN1CC[C@@H](CNC(=O)NCc2ccc(Cl)cc2)N[C@@H](CCN2CCCCC2)C1=O)c1ccccc1 [Compound 518]
< 1	NCC[C@@H]1N[C@H](CCNC(=O)c2ccc3ccccc3c2)CCN(CC(c2ccccc2)c2ccccc2)C1=O [Compound 303, N-(2-((3S,5R)-1-(2,2-diphenylethyl)-2-oxo-3-(2-aminoethyl)-1,4-diazepan-5-yl)ethyl)-2-naphthamide]
< 0.1	CC[C@H](CN1CC[C@@H](CNCc2ccc(Cl)c(Cl)c2)N[C@@H](CCN2CCCCC2)C1=O)c1ccccc1 [Compound 485, (3S,5S)-5-((3,4-dichlorobenzylamino)methyl)-1-((S)-2-phenylbutyl)-3-(2-(piperidin-1-yl)ethyl)-1,4-diazepan-2-one]
< 1	CCCOC(CN1CC[C@@H](CNC(=O)c2ccc3ccccc3c2)N[C@@H](CCCNC(=N)N)C1=O)c1ccccc1 (stereo partly drawn) [Compound 290, N-(((3S,5S)-3-(3-guanidinopropyl)-2-oxo-1-(2-phenyl-2-propoxyethyl)-1,4-diazepan-5-yl)methyl)-2-naphthamide]
< 1	Cc1ccc(C)n1CC[C@@H]1N[C@H](CNC(=O)/C=C/c2ccc(Cl)cc2)CCN(CC(c2ccccc2)c2ccccc2)C1=O [Compound 404, (E)-3-(4-chlorophenyl)-N-(((3S,5S)-3-(2-(2,5-dimethyl-1 H-pyrrol-1-yl)ethyl)-1-(2,2-diphenylethyl)-2-oxo-1,4-diazepan-5-yl)methyl)acrylamide]
< 0.1	CC[C@H](CN1CC[C@@H](CNC(=O)/C=C/c2ccc(Cl)cc2)N[C@@H](CCNC(C)C)C1=O)c1ccccc1 [Compound 408, (E)-3-(4-chlorophenyl)-N-(((3S,5S)-3-(2-(isopropylamino)ethyl)-2-oxo-1-((S)-2-phenylbutyl)-1,4-diazepan-5-yl)methyl)acrylamide]
< 1	CC[C@H](CN1CC[C@@H](CNC(=O)c2ccc3ccccc3c2)N[C@@H](CCN)C1=O)c1ccccc1 [Compound 389, N-(((3S,5S)-3-(2-aminoethyl)-2-oxo-1-((S)-2-phenylbutyl)-1,4-diazepan-5-yl)methyl)-2-naphthamide]
< 1	N=C(N)NCCC[C@@H]1N[C@H](CNC(=O)c2ccc3ccccc3c2)CCN(C2CCCCC2)C1=O [Compound 205, N-(((3S,5S)-1-cyclohexyl-3-(3-guanidinopropyl)-2-oxo-1,4-diazepan-5-yl)methyl)-2-naphthamide]
< 10	C[C@@H](CN1CC[C@@H](CNC(=O)c2ccc3ccccc3c2)N[C@@H](CCCN)C1=O)c1ccccc1 [Compound 357, N-(((3S,5S)-3-(3-aminopropyl)-2-oxo-1-((R)-2-phenylpropyl)-1,4-diazepan-5-yl)methyl)-2-naphthamide]
< 0.01	O=C(/C=C/c1ccc(F)cc1)NC[C@@H]1CCN(CC(c2ccccc2)c2ccccc2)C(=O)[C@H](CCN2CCCCC2)N1 [Compound 284, (E)-N-(((3S,5S)-1-(2,2-diphenylethyl)-2-oxo-3-(2-(piperidin-1-yl)ethyl)-1,4-diazepan-5-yl)methyl)-3-(4-fluorophenyl)acrylamide]
< 0.1	CC[C@@H](CN1CC[C@@H](CNC(=O)c2ccc(Cl)c(Cl)c2)N[C@@H](CCN2CCCCC2)C1=O)c1ccccc1 [Compound 363, 3,4-dichloro-N-(((3S,5S)-2-oxo-1-((R)-2-phenylbutyl)-3-(2-(piperidin-1-yl)ethyl)-1,4-diazepan-5-yl)methyl)benzamide]
< 10	NCCC[C@@H]1N[C@H](CNC(=O)c2ccc3ccccc3c2)CCN(Cc2c(Cl)cccc2Cl)C1=O [Compound 315, N-(((3S,5S)-3-(3-aminopropyl)-1-(2,6-dichlorobenzyl)-2-oxo-1,4-diazepan-5-yl)methyl)-2-naphthamide]
< 1	C/C(=C\c1ccccc1)C(=O)NC[C@@H]1CCN(CC(c2ccccc2)c2ccccc2)C(=O)[C@H](CCCNC(=N)N)N1 [Compound 173, (E)-N-(((3S,5S)-1-(2,2-diphenylethyl)-3-(3-guanidinopropyl)-2-oxo-1,4-diazepan-5-yl)methyl)-2-methyl-3-phenylacrylamide]
< 1	CCC(C)(CC)CN1CC[C@@H](CNC(=O)c2ccc3cc(Cl)ccc3c2)N[C@@H](CCN)C1=O [Compound 512, N-(((3S,5S)-3-(2-aminoethyl)-1-(2-ethyl-2-methylbutyl)-2-oxo-1,4-diazepan-5-yl)methyl)-6-chloro-2-naphthamide]

Source: patent publication US8008291B2 (Mimetica Pty Ltd, priority 2008, dated 2011)
